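Tested at 5 concentrations; 48 h exposure; 96-well plates; endpoints linearly interpolated, else capped at highest concentration. Abbreviation: GI50, concentration required for 50% inhibition of growth.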 Active and inactive are the calls of the source. Cut-off read from the data, not from the text of the source: active = GI50 up to about 1.1 µM and inactive = higher.
What was measured:
Assay in all cases: growth of human tumour cells (NCI), 48 h
HOP-92 = test system: HOP-92
LOX IMVI = test system: LOX IMVI
TK-10 = test system: TK-10
UO-31 = test system: UO-31
HOP-62 = test system: HOP-62
SNB-75 = test system: SNB-75
KM-20L2 = test system: KM-20L2
786-0 = test system: 786-0
SF-295 = test system: SF-295
CCRF-CEM = test system: CCRF-CEM
COLO 205 = test system: COLO 205
SW-620 = test system: SW-620
NCI-H522 = test system: NCI-H522
K562 = test system: K562
SF-268 = test system: SF-268
NCI-H23 = test system: NCI-H23
MOLT-4 = test system: MOLT-4
SNB-78 = test system: SNB-78
SK-MEL-28 = test system: SK-MEL-28
OVCAR-3 = test system: OVCAR-3
ACHN = test system: ACHN
EKVX = test system: EKVX
DLD-1 = test system: DLD-1
A549 = test system: A549
M14 = test system: M14
DMS-114 = test system: DMS-114
RXF 631 = test system: RXF 631
XF498 = test system: XF498
HCT-15 = test system: HCT-15
HCC 2998 = test system: HCC 2998
RXF 393 = test system: RXF 393
OVCAR-8 = test system: OVCAR-8
NCI-H460 = test system: NCI-H460
HOP-18 = test system: HOP-18
SK-MEL-2 = test system: SK-MEL-2
HL-60 = test system: HL-60
DMS-273 = test system: DMS-273
SNB-19 = test system: SNB-19
RPMI-8226 = test system: RPMI-8226
KM12 = test system: KM12
CAKI-1 = test system: CAKI-1
NCI-H226 = test system: NCI-H226
LXFL 529 = test system: LXFL 529
UACC-257 = test system: UACC-257
HT-29 = test system: HT-29
SK-MEL-5 = test system: SK-MEL-5
OVCAR-4 = test system: OVCAR-4
Malme-3M = test system: Malme-3M
SN12C = test system: SN12C
OVCAR-5 = test system: OVCAR-5
SF-539 = test system: SF-539
IGROV-1 = test system: IGROV-1
SK-OV-3 = test system: SK-OV-3
U-251 = test system: U-251
A498 = test system: A498
UACC-62 = test system: UACC-62
M19-MEL = test system: M19-MEL
HCT-116 = test system: HCT-116

Cc1nnc(N/N=C(/C(=O)C(C#N)c2ccc(Cl)cc2)C(C#N)c2ccc(Cl)cc2)n1N (stereo not given) was tested, and the GI50 (HOP-92) was > 100 µM (inactive), the GI50 (LOX IMVI) was 18.6 µM (inactive) and the GI50 (TK-10) was 20 µM (inactive). For the same molecule, the GI50 (UO-31) was 17.7 µM (inactive), the GI50 (HOP-62) was 16.6 µM (inactive) and the GI50 (SNB-75) was 16.4 µM (inactive). The GI50 (KM-20L2) was 20.3 µM (inactive), the GI50 (786-0) was 17.4 µM (inactive) and the GI50 (SF-295) was 15.7 µM (inactive). The GI50 (CCRF-CEM) was 35.6 µM (inactive), the GI50 (COLO 205) was 17.7 µM (inactive) and the GI50 (SW-620) was 18.8 µM (inactive). For the same molecule, the GI50 (NCI-H522) was 16.6 µM (inactive), the GI50 (K562) was 17.5 µM (inactive) and the GI50 (SF-268) was 24.1 µM (inactive). The GI50 (NCI-H23) was 17.8 µM (inactive), the GI50 (MOLT-4) was 31.7 µM (inactive) and the GI50 (SNB-78) was 24.1 µM (inactive). For the same molecule, the GI50 (SK-MEL-28) was 18.7 µM (inactive), the GI50 (OVCAR-3) was 21.5 µM (inactive) and the GI50 (ACHN) was 15.9 µM (inactive). For the same molecule, the GI50 (EKVX) was > 10 µM (inactive), the GI50 (DLD-1) was 20.1 µM (inactive) and the GI50 (A549) was 20.1 µM (inactive). For the same molecule, the GI50 (M14) was 20.7 µM (inactive), the GI50 (DMS-114) was 15.7 µM (inactive) and the GI50 (RXF 631) was 19.8 µM (inactive). For the same molecule, the GI50 (XF498) was 28.8 µM (inactive), the GI50 (HCT-15) was 19.7 µM and the GI50 (HCC 2998) was 19.4 µM (inactive). The GI50 (RXF 393) was 17.7 µM (inactive), the GI50 (OVCAR-8) was 20 µM (inactive) and the GI50 (NCI-H460) was 18.6 µM (inactive). The GI50 (HOP-18) was 16.4 µM (inactive), the GI50 (SK-MEL-2) was 18.2 µM (inactive) and the GI50 (HL-60) was 22.5 µM (inactive). For the same molecule, the GI50 (DMS-273) was 19 µM (inactive), the GI50 (SNB-19) was 14.6 µM (inactive) and the GI50 (RPMI-8226) was 16.5 µM (inactive). The GI50 (KM12) was 18.7 µM (inactive), the GI50 (CAKI-1) was 20.8 µM (inactive) and the GI50 (NCI-H226) was 16.1 µM (inactive). The GI50 (LXFL 529) was 13.4 µM (inactive), the GI50 (UACC-257) was 17.4 µM (inactive) and the GI50 (HT-29) was 20.4 µM (inactive). The GI50 (SK-MEL-5) was 16 µM (inactive), the GI50 (OVCAR-4) was 18.1 µM (inactive) and the GI50 (Malme-3M) was 19.4 µM (inactive). For the same molecule, the GI50 (SN12C) was 19.3 µM (inactive) and the GI50 (OVCAR-5) was 18.5 µM (inactive).
In the case of NN/C(Cc1ccccc1)=N/NC(N)=S, the GI50 (HOP-92) is reported as > 100 µM (inactive), the GI50 (SF-539) is reported as > 100 µM (inactive) and the GI50 (LOX IMVI) is reported as 82.6 µM (inactive). The GI50 (TK-10) was > 100 µM (inactive), the GI50 (UO-31) was > 100 µM (inactive) and the GI50 (HOP-62) was > 100 µM (inactive). The GI50 (SNB-75) was > 100 µM (inactive), the GI50 (KM-20L2) was > 100 µM (inactive) and the GI50 (786-0) was > 100 µM (inactive). For the same molecule, the GI50 (SF-295) was > 100 µM (inactive), the GI50 (CCRF-CEM) was 54.1 µM (inactive) and the GI50 (COLO 205) was > 100 µM (inactive). For the same molecule, the GI50 (SW-620) was > 100 µM (inactive), the GI50 (NCI-H522) was 14.6 µM (inactive) and the GI50 (K562) was > 100 µM (inactive). For the same molecule, the GI50 (IGROV-1) was > 100 µM (inactive), the GI50 (SF-268) was > 100 µM (inactive) and the GI50 (NCI-H23) was > 10 µM (inactive). For the same molecule, the GI50 (MOLT-4) was 49.9 µM (inactive), the GI50 (SK-MEL-28) was > 100 µM (inactive) and the GI50 (SK-OV-3) was > 100 µM (inactive). The GI50 (ACHN) was 62.5 µM (inactive), the GI50 (EKVX) was 97.3 µM (inactive) and the GI50 (DLD-1) was > 100 µM (inactive). The GI50 (A549) was > 100 µM (inactive), the GI50 (U-251) was > 100 µM (inactive) and the GI50 (M14) was > 100 µM (inactive). For the same molecule, the GI50 (DMS-114) was 41.3 µM (inactive), the GI50 (RXF 631) was > 100 µM (inactive) and the GI50 (XF498) was > 100 µM (inactive). For the same molecule, the GI50 (HCT-15) was 72.6 µM, the GI50 (HCC 2998) was > 100 µM (inactive) and the GI50 (RXF 393) was > 100 µM (inactive). For the same molecule, the GI50 (OVCAR-8) was > 100 µM (inactive), the GI50 (NCI-H460) was > 100 µM (inactive) and the GI50 (A498) was > 100 µM (inactive). For the same molecule, the GI50 (UACC-62) was > 100 µM (inactive), the GI50 (HOP-18) was 24 µM (inactive) and the GI50 (SK-MEL-2) was > 100 µM (inactive). The GI50 (HL-60) was 63 µM (inactive), the GI50 (DMS-273) was > 100 µM (inactive) and the GI50 (RPMI-8226) was > 100 µM (inactive). For the same molecule, the GI50 (KM12) was 96.4 µM (inactive), the GI50 (NCI-H226) was > 100 µM (inactive) and the GI50 (LXFL 529) was > 100 µM (inactive). The GI50 (UACC-257) was > 100 µM (inactive), the GI50 (HT-29) was > 100 µM (inactive) and the GI50 (OVCAR-4) was > 100 µM (inactive). The GI50 (M19-MEL) was > 100 µM (inactive), the GI50 (Malme-3M) was > 100 µM (inactive) and the GI50 (OVCAR-5) was > 100 µM (inactive).
In the case of O=c1ccn(/C=C/C(O)C(O)CO)c(=O)[nH]1 (stereo not given), the GI50 (SF-539) is reported as > 100 µM (inactive), the GI50 (LOX IMVI) is reported as > 100 µM (inactive) and the GI50 (TK-10) is reported as > 100 µM (inactive). For the same molecule, the GI50 (UO-31) was > 100 µM (inactive), the GI50 (HOP-62) was > 100 µM (inactive) and the GI50 (SNB-75) was > 100 µM (inactive). The GI50 (KM-20L2) was > 100 µM (inactive), the GI50 (786-0) was > 100 µM (inactive) and the GI50 (HCT-116) was > 100 µM (inactive). For the same molecule, the GI50 (SF-295) was > 100 µM (inactive), the GI50 (CCRF-CEM) was > 100 µM (inactive) and the GI50 (COLO 205) was > 100 µM (inactive). The GI50 (SW-620) was > 100 µM (inactive), the GI50 (NCI-H522) was > 100 µM (inactive) and the GI50 (K562) was > 100 µM (inactive). For the same molecule, the GI50 (IGROV-1) was > 100 µM (inactive), the GI50 (SF-268) was > 100 µM (inactive) and the GI50 (NCI-H23) was > 100 µM (inactive). The GI50 (MOLT-4) was > 100 µM (inactive), the GI50 (SNB-78) was > 100 µM (inactive) and the GI50 (SK-MEL-28) was > 100 µM (inactive). For the same molecule, the GI50 (OVCAR-3) was > 100 µM (inactive), the GI50 (SK-OV-3) was > 100 µM (inactive) and the GI50 (ACHN) was > 100 µM (inactive). For the same molecule, the GI50 (EKVX) was > 100 µM (inactive), the GI50 (DLD-1) was > 100 µM (inactive) and the GI50 (A549) was > 100 µM (inactive). The GI50 (U-251) was > 100 µM (inactive), the GI50 (DMS-114) was > 100 µM (inactive) and the GI50 (RXF 631) was > 100 µM (inactive). The GI50 (XF498) was > 100 µM (inactive), the GI50 (HCT-15) was greater than 100 µM and the GI50 (HCC 2998) was > 100 µM (inactive). The GI50 (OVCAR-8) was > 100 µM (inactive), the GI50 (A498) was > 100 µM (inactive) and the GI50 (UACC-62) was > 100 µM (inactive). For the same molecule, the GI50 (HOP-18) was > 100 µM (inactive), the GI50 (SK-MEL-2) was > 100 µM (inactive) and the GI50 (HL-60) was > 100 µM (inactive). The GI50 (DMS-273) was > 100 µM (inactive), the GI50 (SNB-19) was > 100 µM (inactive) and the GI50 (RPMI-8226) was > 100 µM (inactive). The GI50 (KM12) was 21.7 µM (inactive), the GI50 (CAKI-1) was > 100 µM (inactive) and the GI50 (NCI-H226) was > 100 µM (inactive). The GI50 (LXFL 529) was > 100 µM (inactive), the GI50 (UACC-257) was > 100 µM (inactive) and the GI50 (HT-29) was > 100 µM (inactive). For the same molecule, the GI50 (SK-MEL-5) was > 100 µM (inactive), the GI50 (OVCAR-4) was > 100 µM (inactive) and the GI50 (M19-MEL) was > 100 µM (inactive). The GI50 (Malme-3M) was > 100 µM (inactive), the GI50 (SN12C) was > 100 µM (inactive) and the GI50 (OVCAR-5) was > 100 µM (inactive).
